Test results: US12297241B2, “Method to engineer transplantable human tissues” (The Regents of the University of California, priority 2018, dated 2025)

Legend:
[1] = test system: H1 ESC line; assay: HSV-tk suicide gene killing test with GCV in transduced H1 ESC line; assay type: cell-based, human; settings: GCV 10 μM, 5 days
Experimental: FIGS. 1A-1F: Molecular Sculpting of the Teratoma through miRNAs. (FIG. 1A) Schematic of miRNA-HSV-tk-GFP construct. 2A is gene encoding for a self-cleaving peptide. Upon transcription of construct it will silenced if appropriate endogenously expressed miRNA is present in the cell. (FIG. 1B) Schematic of how developing teratoma should form in the presence of Ganciclovir (GCV, 80 mg/kg/d) if cells were transduced with miRNA-HSV-tk construct. (FIG. 1C) Phase images from light microscopy showing H1 cell survival after 3 and 5 days in the presence of GCV (10 μM). H1 ESC line was either transduced with GFP control (EGIP backbone) or miR-124-HSV-tk-GFP. (FIG. 1D) Fluorescent microscopy and phase images showing HEK293T and HeLA cells transduced with either No GFP control, HSV-tk-GFP, or miR-21-HSV-tk-GFP. (FIG. 1E) Quantification of (FIG. 1D) using flow cytometry and gating based on the presence or absence of GFP. […]
miRNA-HSV-tk constructs were tested in vitro in the H1 ESC line. The functionality of the suicide gene HSV-tk was assessed in the presence of GCV. […] Furthermore, the unique miRNA specificity of the constructs was assessed based on cell type. […]

[2] = test system: miR-124-HSV-tk teratomas (H1 ESC line); assay: In vivo enrichment of miR-124-HSV-tk teratomas with intratumoral GCV, scRNA-seq; parameters: species or system Rag2−/−;γc−/− immunodeficient mice
Experimental: FIGS. 1A-1F: Molecular Sculpting of the Teratoma through miRNAs. (FIG. 1A) Schematic of miRNA-HSV-tk-GFP construct. 2A is gene encoding for a self-cleaving peptide. Upon transcription of construct it will silenced if appropriate endogenously expressed miRNA is present in the cell. (FIG. 1B) Schematic of how developing teratoma should form in the presence of Ganciclovir (GCV, 80 mg/kg/d) if cells were transduced with miRNA-HSV-tk construct. (FIG. 1C) Phase images from light microscopy showing H1 cell survival after 3 and 5 days in the presence of GCV (10 μM). H1 ESC line was either transduced with GFP control (EGIP backbone) or miR-124-HSV-tk-GFP. (FIG. 1D) Fluorescent microscopy and phase images showing HEK293T and HeLA cells transduced with either No GFP control, HSV-tk-GFP, or miR-21-HSV-tk-GFP. (FIG. 1E) Quantification of (FIG. 1D) using flow cytometry and gating based on the presence or absence of GFP. (FIG. 1F) In vivo studies of miR-124-HSV-tk-GFP teratomas in the presence of GCV administration (80 mg/kg/d) showing cell type fraction log fold-change based on different cell types with accompanying Z-scores compared to miR-124-HSV-tk-GFP teratomas in the absence of GCV.
Applicant then tested the miRNA-HSV-tk constructs in vivo with the goal to grow a teratoma that is enriched for a desired lineage. For this task the miR-124-HSV-tk construct was selected to enrich for the neural lineage. After the H1 ESC line was successfully transduced and selected for the miR-124-HSV-tk construct, cells were subcutaneously injected into Rag2^−/−;γc^−/− immunodeficient mice and allowed to form teratomas as described above. Once teratomas reached a minimum of 1 cm in diameter, intratumoral injections with GCV (80 mg/kg/d) for half to tumors began until they grew an appropriate time for extraction (˜10 weeks).
However, enrichment for foregut was also observed. To the best os Applicant's knowledge, there is no known published literature on miR-124 having a role in foregut development.

[3] = intratumoral GCV 80 mg/kg/d vs tumor without GCV

Nc1nc(O)c2ncn(COC(CO)CO)c2n1 [GCV, ganciclovir]
cell survival in the presence of GCV ([1]; H1 cells transduced with GFP control (EGIP backbone alone)): unaffected
cell survival in the presence of GCV ([1]; H1 cells transduced with the miRNA-HSV-tk construct): total cell death
tumor size ([2]; intratumoral GCV 80 mg/kg/d until extraction (~10 weeks) vs tumor without GCV): smaller size
cell types depleted (scRNA-seq) [2, 3]: muscle, retinal pigmented epithelium, and many other cell types
cell-type fraction enriched (scRNA-seq) [2, 3]: early neurons, neuronal progenitors, Schwann cells, and foregut
external heterogeneity of tumor [2, 3]: less heterogeneous
